# Test results as given in patent publication US20070154581A1, “Composition and method for enhancing or stimulating the immune system” (priority 2005, published 2007).
# Read-outs that look alike come from different tables or passages of the source.
# How the values were obtained:
# [1] = alliin in itself; cited from earlier work
# [2] = tested on: phosphatidylcholine biosynthesis; settings: cited from earlier work
# Trypanosoma cruzi = settings: cited from earlier work
# [3] = tested on: human immunodeficiency virus-infected cell system; settings: cited from earlier work
# Entainoeba histolytica = settings: cited from earlier work
# Candida albicans = settings: cited from earlier work
# Salmonella typhimurium = settings: 0.2 to 0.5 mM; cited from earlier work
# Escherichia coli = settings: cited from earlier work
# [4] = tested on: trophozoites of E. histolytica; settings: 5 μg/mL, in vitro; cited from earlier work
# Torulopsis glabrata = settings: cited from earlier work
# Candida krusei = settings: cited from earlier work
# [5] = tested on: tissue-cultured mammalian cells
# [6] = biological target: acetyl-CoA-forming system, consisting of acetate kinase and phosphotransacetyl-CoA synthetase; settings: cited from earlier work
# Streptococcus progenies = settings: Sensitive; cited from earlier work
# alcohol dehydrogenases = experiment: Inhibition of thiol-containing enzymes of the amoeba parasite; format: biochemical
# Crithidia fasciculata = settings: 30 μg/mL; cited from earlier work
# [7] = tested on: mucoid strains of Pseudomonas aeruginosa, Streptococcus β hemnolyticus and Enterococcus faecium; settings: cited from earlier work
# [8] = Candida neoformans; cited from earlier work
# Enterococcus faecium = settings: Clinical MDR strain; cited from earlier work
# [9] = biological target: NADP-dependent alcohol dehydrogenase (Thermoanaerobacter brockii, UniProt P14941); experiment: Inhibition of thiol enzymes by allicin; format: biochemical, Thermoanaerobium brockii; settings: could be reactivated with thiol-containing compounds
# Candida tropicalis = settings: cited from earlier work
# [10] = biological target: T1, NAD-dependent alcohol dehydrogenase (Equus caballus, UniProt P00327); experiment: Inhibition of thiol enzymes by allicin; format: biochemical, horse; settings: could be reactivated with thiol-containing compounds
# T1 construct: the NAD-dependent alcohol dehydrogenase from horse liver; from tissue; host or cells: horse liver
# [11] = tested on: tissue-cultured mammalian cells; settings: cited from earlier work
# Leishmania major = settings: 30 μg/mL; cited from earlier work
# cysteine proteinases = experiment: Inhibition of thiol-containing enzymes of the amoeba parasite; format: biochemical
# [12] = tested on: methicillin resistant Staphylococcus aureus, multidrug-resistant enterotoxicogenic Escherichia coli, Enterococcus, Shigella dysenteriae, S. flexneni and S. …; settings: strains resistant to antibiotics; cited from earlier work
# [13] = tested on: Streptococcus β hemolyticus; settings: Clinical MDR strain; cited from earlier work
# thioredoxin reductases = experiment: Inhibition of thiol-containing enzymes of the amoeba parasite; format: biochemical
# Giardia lamblia = settings: 30 μg/mL; cited from earlier work
# [14] = tested on: Acetate incorporation into fatty acids of isolated plastids; settings: read-out: 50% inhibitory concentration (I 50 value); cited from earlier work
# Pseudomonas aeruginosa = settings: cited from earlier work
# Leptornonas colosoma = settings: 30 μg/mL; cited from earlier work
# Klebsiella pneumoniae = settings: Clinical isolate; cited from earlier work
# Candida parapsilosis = settings: cited from earlier work
# thiol-protease papain = thiol-protease papain (Carica papaya, UniProt P00784); experiment: Inhibition of thiol enzymes by allicin; format: biochemical; settings: could be reactivated with thiol-containing compounds
# Candida = settings: pure allicin; cited from earlier work
# Acinetobacter baumanii = settings: Clinical isolate; cited from earlier work
# Proteus mirabilis = settings: cited from earlier work
# Staphylococcus aureus = settings: cited from earlier work
# S. fiexneri Y = settings: rabbit; cited from earlier work
# T1 sequence (P00327 2-375 limits assumed): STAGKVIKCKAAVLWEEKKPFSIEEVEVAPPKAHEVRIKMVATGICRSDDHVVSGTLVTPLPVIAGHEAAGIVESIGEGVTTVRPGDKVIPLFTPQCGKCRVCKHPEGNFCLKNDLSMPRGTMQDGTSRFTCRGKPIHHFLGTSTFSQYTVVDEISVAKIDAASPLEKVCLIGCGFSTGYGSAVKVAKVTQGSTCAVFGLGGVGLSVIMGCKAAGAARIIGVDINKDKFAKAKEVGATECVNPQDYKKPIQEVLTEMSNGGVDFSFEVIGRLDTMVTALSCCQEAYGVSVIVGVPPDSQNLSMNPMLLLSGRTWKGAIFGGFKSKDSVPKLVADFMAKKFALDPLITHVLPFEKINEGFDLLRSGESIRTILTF
# Chain of thiol-protease papain (P00784 134-345): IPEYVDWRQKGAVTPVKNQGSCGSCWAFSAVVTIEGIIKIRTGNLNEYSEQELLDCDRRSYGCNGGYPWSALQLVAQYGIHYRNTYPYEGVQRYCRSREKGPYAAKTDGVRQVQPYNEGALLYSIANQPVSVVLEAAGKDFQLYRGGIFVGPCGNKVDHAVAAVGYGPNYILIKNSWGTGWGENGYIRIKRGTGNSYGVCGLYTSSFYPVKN
# Chain of NADP-dependent alcohol dehydrogenase (P14941 whole entry): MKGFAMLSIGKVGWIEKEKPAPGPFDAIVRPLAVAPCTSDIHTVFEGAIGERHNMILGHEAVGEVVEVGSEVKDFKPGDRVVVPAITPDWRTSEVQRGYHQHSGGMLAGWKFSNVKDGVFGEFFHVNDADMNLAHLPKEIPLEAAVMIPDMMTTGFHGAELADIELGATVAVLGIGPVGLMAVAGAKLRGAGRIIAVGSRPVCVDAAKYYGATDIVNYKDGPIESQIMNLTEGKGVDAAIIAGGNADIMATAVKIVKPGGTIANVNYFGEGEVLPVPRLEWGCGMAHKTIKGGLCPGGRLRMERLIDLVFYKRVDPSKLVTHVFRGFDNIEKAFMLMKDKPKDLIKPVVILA
compound,measurement,setting,value
(+)-S-allyl-L-cysteine-sulfoxide [alliin],antimicrobial activity,[1],no antimicrobial activity
C=CCSSC=CC[S+]([O-])CC=C (mixture of isomers) [ajoene],phosphatidylcholine biosynthesis,[2],inhibit phosphatidylcholine biosynthesis
same,proliferation of Trypanosoma cruzi,Trypanosoma cruzi,inhibit the proliferation
same,integrin-dependent processes,[3],block the integrin-dependent processes
C=CCS[S+]([O-])CC=C (centres unmarked) [allicin],concentration that totally inhibits the growth of amoeba cultures,Entainoeba histolytica,30 µg/mL
same,Allicin concentration MIC,Candida albicans; Clinical isolates,0.8 µg/mL
same,Allicin concentration MIC,Candida albicans,0.3 µg/mL
same,effect on DNA and protein synthesis,Salmonella typhimurium,partially inhibit
same,effect on RNA synthesis,Salmonella typhimurium,immediate
same,Allicin Concentration (LD50 ug/ml),Escherichia coli; Multidrug resistant MDR,15 µg/mL
same,Allicin Concentration (LD50 ug/ml),Escherichia coli; Sensitive to antibiotics,15 µg/mL
same,inhibition of virulence of trophozoites,[4],90%
same,Allicin concentration MIC,Torulopsis glabrata; Clinical isolates,1.9 µg/mL
same,Allicin concentration MIC,Torulopsis glabrata,0.3 µg/mL
same,Allicin concentration MIC,Candida krusei,0.3 µg/mL
same,concentration toxic to tissue-cultured mammalian cells,[5],> 100 µg/mL
same,kind of inhibition,[6],noncovalent and reversible
same,Allicin Concentration (LD50 ug/ml),Streptococcus progenies,3 µg/mL
same,concentration at which inhibition was observed,alcohol dehydrogenases,> 10 µg/mL
same,growth inhibition,Crithidia fasciculata,very efficiently inhibited
same,sensitivity to allicin,[7],resistant
same,Allicin concentration MIC,[8],0.3 µg/mL
same,Allicin Concentration (LD50 ug/ml),Enterococcus faecium,>100 µg/mL
same,inhibition of NADP-dependent alcohol dehydrogenase from Thermoanaerobium brockii,[9],irreversibly inhibited
same,Allicin concentration MIC,Candida tropicalis,0.3 µg/mL
same,inhibition of NAD-dependent alcohol dehydrogenase from horse liver,[10],irreversibly inhibited
same,concentration at which some toxicity towards tissue-cultured mammalian cells was observed,[11],above 100 μM
same,growth inhibition,Leishmania major,very efficiently inhibited
same,concentration at which inhibition was observed,cysteine proteinases,> 10 µg/mL
same,sensitivity to allicin,[12],sensitive
same,Allicin Concentration (LD50 ug/ml),[13],>100 µg/mL
same,concentration at which inhibition was observed,thioredoxin reductases,> 10 µg/mL
same,growth inhibition,Giardia lamblia,very efficiently inhibited
same,IC50,[14],< 10 mM
same,Allicin Concentration (LD50 ug/ml),Pseudomonas aeruginosa; MDR mucoid strain,>100 µg/mL
same,Allicin Concentration (LD50 ug/ml),Pseudomonas aeruginosa; Sensitive to cefprozil,15 µg/mL
same,growth inhibition,Leptornonas colosoma,very efficiently inhibited
same,Allicin Concentration (LD50 ug/ml),Klebsiella pneumoniae,8 µg/mL
same,Allicin concentration MIC,Candida parapsilosis,0.15 µg/mL
same,inhibition of papain,thiol-protease papain,irreversibly inhibited
same,minimum inhibitory concentration,Candida,7 µg/mL
same,Allicin Concentration (LD50 ug/ml),Acinetobacter baumanii,15 µg/mL
same,Allicin Concentration (LD50 ug/ml),"Proteus mirabilis; Prloteus marbles, Sensitive",15 µg/mL
same,Allicin Concentration (LD50 ug/ml),"Proteus mirabilis; Proteus mirabilis, Clinical MDR strain",>30 µg/mL
same,Allicin Concentration (LD50 ug/ml),Staphylococcus aureus; Methicillin resistant,12 µg/mL
same,Allicin Concentration (LD50 ug/ml),Staphylococcus aureus; Sensitive,12 µg/mL
same,antibacterial activity in vivo,S. fiexneri Y,in vivo antibacterial activity
